Laboratory results taken from patent publication US10918645B2 (LIFEARC, priority 2016, dated 2021).

What was measured:
Type in all cases: biochemical
Details in all cases: 1 μM inhibitor concentration
[1] = biological target: PIM1 (Homo sapiens (Human), UniProt P11309); assay: PIM1 kinase selectivity assay
Experimental: (§1) PIM1 (5-20 mU diluted in 50 mM Tris pH 7.5, 0.1 mM EGTA, 0.1% b-mercaptoethanol, 1 mg/ml BSA) is assayed against a substrate peptide ([…]) in a final volume of 25.5 μl containing 50 mM Tris pH 7.5, 0.05% b-mercaptoethanol, 300 μM substrate peptide, 10 mM magnesium acetate and 0.02 mM [33P-g-ATP] (50-1000 cpm/pmole) and incubated for 30 min at room temperature. Assays are stopped by addition of 5 μl of 0.5 M (3%) orthophosphoric acid and then harvested onto P81 Unifilter plates with a wash buffer of 50 mM orthophosphoric acid.

[2] = biological target: AuroraA (Homo sapiens (Human), UniProt O14965); assay: AuroraA kinase selectivity assay
Sequence of AuroraA (O14965 whole entry): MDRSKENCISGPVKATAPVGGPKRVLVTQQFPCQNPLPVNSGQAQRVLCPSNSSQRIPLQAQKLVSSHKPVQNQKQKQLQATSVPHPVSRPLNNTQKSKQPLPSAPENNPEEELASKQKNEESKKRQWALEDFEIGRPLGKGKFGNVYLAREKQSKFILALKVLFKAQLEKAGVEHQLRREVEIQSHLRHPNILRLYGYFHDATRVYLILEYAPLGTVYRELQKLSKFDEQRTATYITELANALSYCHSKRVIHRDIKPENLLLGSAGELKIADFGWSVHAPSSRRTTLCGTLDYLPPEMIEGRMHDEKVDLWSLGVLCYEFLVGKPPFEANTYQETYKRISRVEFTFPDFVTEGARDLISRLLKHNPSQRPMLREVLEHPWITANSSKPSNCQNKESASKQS
Experimental: Aurora A (5-20 mU diluted in 50 mM Tris pH 7.5, 0.1 mM EGTA, 0.1% β-mercaptoethanol, 1 mg/ml BSA) is assayed against […] in a final volume of […] containing 50 mM Tris pH 7.5, 0.1 mM EGTA, 0.3 mM […] 10 mM magnesium acetate and 0.005 mM [33P-γ-ATP](50-1000 cpm/pmole) and incubated for 30 min at room temperature. Assays are stopped by addition of 5 μl of 0.5 M (3%) orthophosphoric acid and then harvested onto P81 Unifilter plates with a wash buffer of 50 mM orthophosphoric acid.

[3] = biological target: CHK2 (Homo sapiens (Human), UniProt O96017); assay: CHK2 kinase selectivity assay
Sequence of CHK2 (O96017 whole entry, species assumed): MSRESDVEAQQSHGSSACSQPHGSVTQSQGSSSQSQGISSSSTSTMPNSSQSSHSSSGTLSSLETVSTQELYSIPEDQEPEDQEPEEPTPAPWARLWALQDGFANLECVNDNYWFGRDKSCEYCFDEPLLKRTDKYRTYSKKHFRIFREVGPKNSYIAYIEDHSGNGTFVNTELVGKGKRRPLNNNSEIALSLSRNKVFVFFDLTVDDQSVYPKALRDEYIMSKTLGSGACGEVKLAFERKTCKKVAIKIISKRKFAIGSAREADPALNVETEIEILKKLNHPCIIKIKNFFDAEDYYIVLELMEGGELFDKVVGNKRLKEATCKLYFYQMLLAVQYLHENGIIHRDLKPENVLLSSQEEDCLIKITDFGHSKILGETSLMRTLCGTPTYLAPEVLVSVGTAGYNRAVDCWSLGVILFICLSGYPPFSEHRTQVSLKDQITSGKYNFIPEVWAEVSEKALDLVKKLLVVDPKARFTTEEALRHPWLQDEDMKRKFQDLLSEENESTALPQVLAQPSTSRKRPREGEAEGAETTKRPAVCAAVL
Experimental: CHK2 (5-20 mU diluted in 20 mM MOPS pH 7.5, 1 mM EDTA, 0.1% b-mercaptoethanol, 0.01% Brij-35, 5% glycerol, 1 mg/ml BSA) is assayed against CHKtide substrate peptide ([…]) in a final volume of 25.5 μl containing 8 mM MOPS pH 7.0, 0.2 mM EDTA, 200 μM CHKtide, 10 mM magnesium acetate and 0.02 mM [33P-g-ATP](50-1000 cpm/pmole) and incubated for 30 min at room temperature Assays are stopped by addition of 5 μl of 0.5 M (3%) orthophosphoric acid and then harvested onto P81 Unifilter plates with a wash buffer of 50 mM orthophosphoric acid.

[4] = biological target: CAMK1 (Homo sapiens (Human), UniProt Q14012); assay: CAMK1 kinase selectivity assay
Experimental: 5-20 mU of CAMK-1 (diluted in 50 mM Tris (pH 7.5), 0.1 mM EGTA, 1 mg/ml BSA, 0.1%, b-Mercaptoethanol) is assayed against substrate peptide ([…]) in a final volume of 25.5 μl containing 50 mM Tris (pH 7.5), 0.1 mM EGTA, 0.5 mM CaCl2, 0.3 μM calmodulin, 0.1%, b-Mercaptoethanol, 300 μM substrate peptide, 10 mM magnesium acetate and 0.05 mM [33P-g-ATP](500-1000 cpm/pmole) and incubated for 30 mins at room temperature. Assays are stopped by addition of […] of 0.5M (3%) orthophosphoric acid. Assays are harvested onto P81 Unifilter plates using a wash buffer of 50 mM orthophosphoric acid.

[5] = biological target: S6K1 (Homo sapiens (Human), UniProt P23443); assay: S6K1 kinase selectivity assay
Sequence of S6K1 (P23443 whole entry, species assumed): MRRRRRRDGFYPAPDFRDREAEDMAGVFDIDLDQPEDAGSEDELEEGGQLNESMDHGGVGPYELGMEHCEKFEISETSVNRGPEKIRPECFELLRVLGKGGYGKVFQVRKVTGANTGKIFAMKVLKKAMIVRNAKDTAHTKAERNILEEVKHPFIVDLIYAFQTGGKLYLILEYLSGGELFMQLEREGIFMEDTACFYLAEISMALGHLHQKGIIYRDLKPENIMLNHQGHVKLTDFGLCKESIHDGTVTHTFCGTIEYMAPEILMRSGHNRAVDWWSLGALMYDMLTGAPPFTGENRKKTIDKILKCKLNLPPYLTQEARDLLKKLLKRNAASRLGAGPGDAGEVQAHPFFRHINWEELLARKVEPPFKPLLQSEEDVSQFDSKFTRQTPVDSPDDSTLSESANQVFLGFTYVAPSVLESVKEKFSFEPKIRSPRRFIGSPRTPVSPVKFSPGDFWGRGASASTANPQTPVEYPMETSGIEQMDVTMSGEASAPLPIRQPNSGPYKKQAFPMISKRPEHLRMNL
Experimental: S6K1/P70 S6K (5-20 mU diluted in 20 mM MOPS pH 7.5, 1 mM EDTA, 0.01% Brij35, 5% glycerol, 0.1% b-mercaptoethanol, 1 mg/ml BSA) is assayed against substrate peptide ([…]) in a final volume of 25.5 μl containing 8 mM MOPS pH 7.0, 0.2 mM EDTA, 0.1 mM substrate peptide, 10 mM magnesium acetate and 0.02 mM [33P-g-ATP] (50-1000 cpm/pmole) and incubated for 30 min at room temperature. Assays are stopped by addition of 5 μl of 0.5 M (3%) orthophosphoric acid and then harvested onto P81 Unifilter plates with a wash buffer of 50 mM orthophosphoric acid.

[6] = biological target: PKBb (Homo sapiens (Human), UniProt P31751, S474D); assay: PKBb kinase selectivity assay
Sequence of PKBb (P31751 120-481 S474D): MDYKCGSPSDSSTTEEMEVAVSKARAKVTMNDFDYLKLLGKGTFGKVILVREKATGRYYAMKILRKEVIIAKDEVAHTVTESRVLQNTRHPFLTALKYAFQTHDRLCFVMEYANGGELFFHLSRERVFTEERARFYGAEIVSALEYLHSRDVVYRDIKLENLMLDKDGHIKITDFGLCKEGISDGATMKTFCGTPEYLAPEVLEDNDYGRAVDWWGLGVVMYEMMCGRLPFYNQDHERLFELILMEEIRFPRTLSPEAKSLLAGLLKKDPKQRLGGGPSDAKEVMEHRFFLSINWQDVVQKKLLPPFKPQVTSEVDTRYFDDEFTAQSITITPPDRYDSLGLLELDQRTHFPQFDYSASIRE
Experimental: as §1, with “ΔPH-PKBbeta-S474D (5-20” for “PIM1 (5-20”, “a modified Crosstide” for “a substrate”, “b-mercaptoethanol, 30” for “b-mercaptoethanol, 300”, “and 0.05” for “and 0.02”, “mM [33P-g-ATP](50-1000” for “mM [33P-g-ATP] (50-1000”

[7] = biological target: ERK1 (Homo sapiens (Human), UniProt P27361); assay: ERK1 kinase selectivity assay
Sequence of ERK1 (P27361 whole entry, species assumed): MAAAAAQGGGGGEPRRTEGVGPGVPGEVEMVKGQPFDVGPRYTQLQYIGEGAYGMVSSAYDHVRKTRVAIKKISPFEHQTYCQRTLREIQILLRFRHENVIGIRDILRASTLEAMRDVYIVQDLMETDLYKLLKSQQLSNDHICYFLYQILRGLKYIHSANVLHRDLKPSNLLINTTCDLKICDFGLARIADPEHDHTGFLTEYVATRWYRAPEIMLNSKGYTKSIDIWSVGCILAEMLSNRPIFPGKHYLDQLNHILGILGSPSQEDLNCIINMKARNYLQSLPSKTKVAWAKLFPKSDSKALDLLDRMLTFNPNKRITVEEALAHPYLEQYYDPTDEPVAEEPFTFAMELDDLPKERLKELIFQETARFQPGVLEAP
Experimental: 5-20 mU of ERK1 (diluted in 50 mM Tris (pH 7.5), 0.1 mM EGTA, 1 mg/ml BSA, 0.1%, b-Mercaptoethanol) is assayed against MBP in a final volume of 25.5 μl containing 50 mM Tris (pH 7.5), 0.1 mM EGTA, 0.1%, b-Mercaptoethanol, 0.33 mg/ml MBP, 10 mM magnesium acetate and 0.005 mM [33P-g-ATP](500-1000 cpm/pmole) and incubated for 30 mins at room temperature. Assays are stopped by addition of 5 μl of 0.5M (3%) orthophosphoric acid. Assays are harvested onto P81 Unifilter plates using a wash buffer of 50 mM orthophosphoric acid.

[8] = biological target: MNK2 (Homo sapiens (Human), UniProt Q9HBH9); assay: MNK2 kinase selectivity assay
Sequence of MNK2 (Q9HBH9 whole entry, species assumed): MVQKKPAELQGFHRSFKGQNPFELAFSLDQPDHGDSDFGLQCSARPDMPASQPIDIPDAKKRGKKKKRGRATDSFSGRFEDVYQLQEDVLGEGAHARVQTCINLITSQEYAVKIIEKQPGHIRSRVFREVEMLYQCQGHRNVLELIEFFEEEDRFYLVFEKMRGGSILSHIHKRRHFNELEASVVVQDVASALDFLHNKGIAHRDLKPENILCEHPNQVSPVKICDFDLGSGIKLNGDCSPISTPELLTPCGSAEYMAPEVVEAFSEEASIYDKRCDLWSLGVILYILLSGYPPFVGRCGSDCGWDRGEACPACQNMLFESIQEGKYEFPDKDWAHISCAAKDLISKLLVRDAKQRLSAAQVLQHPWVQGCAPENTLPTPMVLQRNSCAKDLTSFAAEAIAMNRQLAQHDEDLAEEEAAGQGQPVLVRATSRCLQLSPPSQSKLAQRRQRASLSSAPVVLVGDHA
Experimental: 5-20 mU of MNK2 (diluted in 50 mM Tris (pH 7.5), 0.1 mM EGTA, 1 mg/ml BSA, 0.1%, b-Mercaptoethanol) is assayed against substrate peptide (eIF4E) in a final volume of 25.5 μl containing 50 mM Tris (pH 7.5), 0.1 mM EGTA, 0.1%, b-Mercaptoethanol, 0.5 mg/ml substrate peptide, 10 mM magnesium acetate and 0.05 mM [33P-g-ATP](500-1000 cpm/pmole) and incubated for 30 mins at room temperature. Assays are stopped by addition of 5 μl of 0.5M (3%) orthophosphoric acid. Assays are harvested onto P81 Unifilter plates using a wash buffer of 50 mM orthophosphoric acid.

Sequence of PIM1 (P11309 whole entry, species assumed): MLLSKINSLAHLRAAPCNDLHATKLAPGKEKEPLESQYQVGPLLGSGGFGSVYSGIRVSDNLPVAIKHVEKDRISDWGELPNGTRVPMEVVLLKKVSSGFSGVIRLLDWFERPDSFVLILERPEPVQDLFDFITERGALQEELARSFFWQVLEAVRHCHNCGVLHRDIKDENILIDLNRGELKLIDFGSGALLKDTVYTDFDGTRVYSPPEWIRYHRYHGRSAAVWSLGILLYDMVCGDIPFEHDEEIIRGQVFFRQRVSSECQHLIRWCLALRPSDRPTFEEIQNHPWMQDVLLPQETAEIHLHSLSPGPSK

Row | SMILES | percentage inhibition of PIM1 [1] [percentage] | percentage inhibition of AuroraA [2] [percentage] | percentage inhibition of CHK2 [3] [percentage] | percentage inhibition of CAMK1 [4] [percentage] | percentage inhibition of S6K1 [5] [percentage] | percentage inhibition of PKBb [6] [percentage] | percentage inhibition of ERK1 [7] [percentage] | percentage inhibition of MNK2 [8] [percentage]
1 | CC(C)n1ncc2c1CN(C1CCN(C)CC1)c1nccc3[nH]nc-2c13 [Example 68] | 77 | 13 | 53 | 45 | 0 | 9 | 11 | 18
2 | c1cc2[nH]nc3c2c(n1)N(C1CCC1)CCC3 [Example 22, 6-cyclobutyl-6,7,8,9-tetrahydro-2H-1,2,5,6-tetraazabenzo[cd]azulene] | 0 | 0 | 11 | 0 | 0 | 0 | 0 | 0
3 | c1cc2[nH]nc3c2c(n1)N(C1CCCC1)CCC3 [Example 23, 6-cyclopentyl-6,7,8,9-tetrahydro-2H-1,2,5,6-tetraazabenzo[cd]azulene] | 0 | 0 | 0 | 0 | 0 | 0 | 0 | 0
4 | CN1CCC(N2Cc3ccccc3-c3n[nH]c4ccnc2c34)CC1 [Example 55] | 26 | 9 | 80 | 25 | 17 | 10 | 4 | 40
5 | c1cc2[nH]nc3c2c(n1)N(C1CCOCC1)CCC3 [Example 29, 6-(tetrahydro-2H-pyran-4-yl)-6,7,8,9-tetrahydro-2H-1,2,5,6-tetraazabenzo[cd]azulene] | 0 | 0 | 2 | 0 | 2 | 0 | 0 | 0
